One may read the IC50 as the concentration at which inhibition is half-maximal. The term Ki denotes the equilibrium dissociation constant of an inhibitor or competing ligand from its target. By EC50 is commonly meant the concentration needed to bring the measured effect to its halfway point. What is called Kd is the constant that tells how readily two partners part at equilibrium.

Data set [1] has as its target T1, ATR (Mus musculus, UniProt Q9JKK8).
T1 construct: endogenous in cells; host or cells: 3T3TopBP1-ER cells
The note with it: 3T3TopBP1-ER cells; cited from earlier work.

The test system of data set [2] is JNK. The note with it: cited from earlier work.
Data set [3] deals with T2, JNK.
T2 construct: IC50; Ki
As to conditions: cited from earlier work.

Data set [4] has as its target ATR (Homo sapiens, UniProt Q13535). As to conditions: cited from earlier work.
In another data set the target is ATM kinase (Homo sapiens, UniProt Q13315). The note with it: cited from earlier work.
Data set [5] concerns human recombinant MEK1, MKK4, IKKα, PKCα, Src, Syc and PDGFα. The note with it: at concentrations less than 30 μM; cited from earlier work.
The subject of another data set is Mv1Lu cells. As to conditions: read-out: IC50, TGFβ-induced AP-1 activation; cited from earlier work.
For data set [6] the following is noted: cited from earlier work.
A further data set relates to JNK1, 2 and 3. The note with it: cited from earlier work.
The test system of data set [7] is human CD34+ HSPCs. Put plainly: HDR gene editing efficiency in HSPCs (ddPCR, GFP flow cytometry). Type of data set: cell-based. On the technique in general: In flow cytometry, cells or beads pass a laser one at a time.
Another data set relates to JNK and JIP. The note with it: read-out: IC50, protein-protein interaction between JNK and JIP; cited from earlier work.
The next data set concerns c-Jun phosphorylation. As to conditions: cited from earlier work.
The target in a further data set is casein kinase 2 (CK2) (Homo sapiens, UniProt P68400). As to conditions: cited from earlier work.
Data set [8] addresses extracellular-signal-regulated kinase 8 (ERK8) (Homo sapiens, UniProt Q8TD08). The note with it: cited from earlier work.
The next data set deals with PIM1 (Homo sapiens, UniProt P11309). The note with it: cited from earlier work.
The target of a further data set is DYRK1a (Homo sapiens, UniProt Q13627). As to conditions: cited from earlier work.
The target in another data set is HIPK2 (Homo sapiens, UniProt Q9H2X6). As to conditions: cited from earlier work.
In another data set the target is BRD4 (Homo sapiens, UniProt O60885). The note with it: cited from earlier work.
Another data set relates to IL8, CXCL10, p21, p16. Description: Gene expression in BM-derived HSPCs (qPCR). Type of data set: cell-based, human. As to conditions: 18 weeks post transplantation, HS/AAV6 ± GSE56. The method, then: For gene expression analyses, total RNA was extracted using either miRNeasy Micro Kit (QIAGEN) according to the manufacturer's instructions and DNase treatment was performed using RNase-free DNase Set (QIAGEN). cDNA was synthetized with iScript cDNA Synthesis Kit (Bio-Rad). cDNA was then pre-amplified using TaqMan PreAmp Master Mix (ThermoFisher) and used for q-PCR in a Viia7 Real-time PCR thermal cycler using both Fast SYBR Green Master Mix (Thermofisher), after standard curve method optimization to reach the 100% primer efficiency for each couple of primers listed in 1. The relative expression of each target gene was first normalized to GUSB housekeeping genes expression and then represented as 2^-DCt for each sample or as fold changes (2^-DDCt) relative to the indicated control conditions.
(Real-time PCR tracks product formation cycle by cycle.)

The next data set relates to edited human CD34+ HSPCs. Put plainly: CD34+ HSPC xenotransplantation in NSG mice. It is filed as in vivo. As to conditions: inhibitor at time of ex vivo GE (GSE56: limiting cell doses).
Data set [9] relates to BM-derived human CD34+ cells. Description: Senescence markers (p16, SA-β-Gal) in BM-derived cells of the human graft. It is filed as in vivo, NSG mice. As to conditions: NSG mice, endpoint 15-18 weeks; inhibitor at time of ex vivo GE.
Data set [10] deals with human CD34+ HSPCs. Description: Colony-forming unit cell (CFU-C) assay. It is filed as cell-based. The note with it: CB HSPCs, HS/AAV6; inhibitor at time of GE vs standard protocol; 24 h and 96 h post GE.
For data set [11], the system named is BM-derived human CD34+ cells. Description: CFU-C assay of CD34+ cells retrieved from bone marrow of primary recipients. It is filed as cell-based. The note with it: 15-18 weeks, inhibitor at time of ex vivo GE vs standard protocol.
A further data set has as its system IL1A, IL8, IL6, CCL2. Put plainly: Inflammatory cytokine expression in edited HSPCs (qPCR). The note with it: CB HSPCs, HS/AAV6; inhibitor at time of GE vs standard protocol. It is filed as cell-based, human.

Entries after “also recorded” stand apart in the source; their conditions may differ. Counter-ions that a name gives are not always drawn.

casein kinase 2 (CK2), sequence (P68400 whole entry): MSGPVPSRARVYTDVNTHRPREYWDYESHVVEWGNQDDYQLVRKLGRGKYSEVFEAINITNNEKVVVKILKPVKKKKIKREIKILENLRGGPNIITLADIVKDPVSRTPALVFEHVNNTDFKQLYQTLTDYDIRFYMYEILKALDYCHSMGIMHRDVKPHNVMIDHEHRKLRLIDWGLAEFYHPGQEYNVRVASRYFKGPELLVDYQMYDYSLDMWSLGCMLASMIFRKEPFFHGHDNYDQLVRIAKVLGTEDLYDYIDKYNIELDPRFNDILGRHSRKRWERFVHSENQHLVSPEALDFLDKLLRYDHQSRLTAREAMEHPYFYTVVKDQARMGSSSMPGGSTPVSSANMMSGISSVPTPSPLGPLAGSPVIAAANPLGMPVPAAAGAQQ
T1 sequence (Q9JKK8 whole entry): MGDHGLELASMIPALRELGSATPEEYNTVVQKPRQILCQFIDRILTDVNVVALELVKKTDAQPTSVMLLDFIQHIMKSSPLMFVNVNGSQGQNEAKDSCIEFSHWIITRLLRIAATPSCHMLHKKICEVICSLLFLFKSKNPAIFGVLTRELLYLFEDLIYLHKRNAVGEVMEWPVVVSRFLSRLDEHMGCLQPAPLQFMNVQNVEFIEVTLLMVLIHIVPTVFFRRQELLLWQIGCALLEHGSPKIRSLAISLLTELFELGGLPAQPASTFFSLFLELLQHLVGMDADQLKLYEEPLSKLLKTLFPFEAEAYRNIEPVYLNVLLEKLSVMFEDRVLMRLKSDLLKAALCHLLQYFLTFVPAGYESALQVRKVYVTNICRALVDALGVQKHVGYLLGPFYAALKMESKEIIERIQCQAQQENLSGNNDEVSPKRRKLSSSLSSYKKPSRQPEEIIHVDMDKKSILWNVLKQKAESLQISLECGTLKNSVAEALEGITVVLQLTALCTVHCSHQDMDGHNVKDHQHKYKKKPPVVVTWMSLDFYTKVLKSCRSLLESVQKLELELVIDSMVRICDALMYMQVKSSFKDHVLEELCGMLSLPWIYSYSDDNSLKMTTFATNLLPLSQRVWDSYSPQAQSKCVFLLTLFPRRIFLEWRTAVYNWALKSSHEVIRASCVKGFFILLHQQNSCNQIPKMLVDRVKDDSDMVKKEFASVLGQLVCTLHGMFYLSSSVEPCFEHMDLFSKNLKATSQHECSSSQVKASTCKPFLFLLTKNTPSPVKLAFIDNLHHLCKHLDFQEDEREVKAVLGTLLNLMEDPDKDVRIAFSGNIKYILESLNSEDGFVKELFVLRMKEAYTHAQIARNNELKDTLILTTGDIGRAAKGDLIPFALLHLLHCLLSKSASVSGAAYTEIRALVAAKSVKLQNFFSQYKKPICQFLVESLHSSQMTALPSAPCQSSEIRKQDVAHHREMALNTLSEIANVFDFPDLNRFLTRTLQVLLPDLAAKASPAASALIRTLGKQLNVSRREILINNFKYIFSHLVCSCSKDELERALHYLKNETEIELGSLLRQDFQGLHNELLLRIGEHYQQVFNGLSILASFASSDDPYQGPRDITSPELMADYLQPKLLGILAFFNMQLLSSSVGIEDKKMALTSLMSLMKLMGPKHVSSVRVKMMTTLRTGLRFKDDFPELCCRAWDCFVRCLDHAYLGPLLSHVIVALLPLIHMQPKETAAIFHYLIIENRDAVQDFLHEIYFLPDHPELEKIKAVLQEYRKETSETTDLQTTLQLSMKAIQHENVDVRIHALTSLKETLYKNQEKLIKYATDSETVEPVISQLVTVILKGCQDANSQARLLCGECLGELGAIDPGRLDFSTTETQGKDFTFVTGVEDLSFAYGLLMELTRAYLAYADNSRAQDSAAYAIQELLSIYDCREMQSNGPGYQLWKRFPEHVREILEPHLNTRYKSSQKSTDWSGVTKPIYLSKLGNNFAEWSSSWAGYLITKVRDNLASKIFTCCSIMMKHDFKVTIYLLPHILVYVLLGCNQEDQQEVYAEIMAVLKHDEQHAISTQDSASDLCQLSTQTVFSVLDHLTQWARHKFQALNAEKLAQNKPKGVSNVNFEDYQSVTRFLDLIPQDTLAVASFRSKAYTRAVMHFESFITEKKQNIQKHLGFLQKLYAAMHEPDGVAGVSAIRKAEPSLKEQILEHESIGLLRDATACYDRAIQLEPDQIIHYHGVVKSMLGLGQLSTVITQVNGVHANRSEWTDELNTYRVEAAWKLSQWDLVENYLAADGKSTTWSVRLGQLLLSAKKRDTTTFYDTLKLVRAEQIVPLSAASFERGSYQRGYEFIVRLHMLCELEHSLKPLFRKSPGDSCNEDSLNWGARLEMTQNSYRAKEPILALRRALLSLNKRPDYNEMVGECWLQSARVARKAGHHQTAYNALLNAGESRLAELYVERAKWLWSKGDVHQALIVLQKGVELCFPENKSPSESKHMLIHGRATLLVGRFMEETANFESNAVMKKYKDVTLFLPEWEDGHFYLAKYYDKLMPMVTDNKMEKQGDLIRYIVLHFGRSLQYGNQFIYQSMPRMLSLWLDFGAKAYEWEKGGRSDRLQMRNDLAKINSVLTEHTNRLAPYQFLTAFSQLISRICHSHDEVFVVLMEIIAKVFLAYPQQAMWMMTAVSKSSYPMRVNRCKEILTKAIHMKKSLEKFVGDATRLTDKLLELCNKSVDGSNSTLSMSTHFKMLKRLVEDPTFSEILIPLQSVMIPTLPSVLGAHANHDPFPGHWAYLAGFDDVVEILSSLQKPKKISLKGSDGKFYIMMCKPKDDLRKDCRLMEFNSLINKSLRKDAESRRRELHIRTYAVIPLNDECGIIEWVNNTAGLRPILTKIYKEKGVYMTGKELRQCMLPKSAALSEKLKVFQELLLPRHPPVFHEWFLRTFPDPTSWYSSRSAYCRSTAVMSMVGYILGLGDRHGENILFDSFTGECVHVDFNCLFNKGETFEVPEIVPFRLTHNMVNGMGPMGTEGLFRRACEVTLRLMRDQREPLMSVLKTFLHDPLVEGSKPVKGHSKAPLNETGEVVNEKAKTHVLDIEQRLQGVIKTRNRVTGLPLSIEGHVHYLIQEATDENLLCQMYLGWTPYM
T1 sequence (Q8BMG1 whole entry partner): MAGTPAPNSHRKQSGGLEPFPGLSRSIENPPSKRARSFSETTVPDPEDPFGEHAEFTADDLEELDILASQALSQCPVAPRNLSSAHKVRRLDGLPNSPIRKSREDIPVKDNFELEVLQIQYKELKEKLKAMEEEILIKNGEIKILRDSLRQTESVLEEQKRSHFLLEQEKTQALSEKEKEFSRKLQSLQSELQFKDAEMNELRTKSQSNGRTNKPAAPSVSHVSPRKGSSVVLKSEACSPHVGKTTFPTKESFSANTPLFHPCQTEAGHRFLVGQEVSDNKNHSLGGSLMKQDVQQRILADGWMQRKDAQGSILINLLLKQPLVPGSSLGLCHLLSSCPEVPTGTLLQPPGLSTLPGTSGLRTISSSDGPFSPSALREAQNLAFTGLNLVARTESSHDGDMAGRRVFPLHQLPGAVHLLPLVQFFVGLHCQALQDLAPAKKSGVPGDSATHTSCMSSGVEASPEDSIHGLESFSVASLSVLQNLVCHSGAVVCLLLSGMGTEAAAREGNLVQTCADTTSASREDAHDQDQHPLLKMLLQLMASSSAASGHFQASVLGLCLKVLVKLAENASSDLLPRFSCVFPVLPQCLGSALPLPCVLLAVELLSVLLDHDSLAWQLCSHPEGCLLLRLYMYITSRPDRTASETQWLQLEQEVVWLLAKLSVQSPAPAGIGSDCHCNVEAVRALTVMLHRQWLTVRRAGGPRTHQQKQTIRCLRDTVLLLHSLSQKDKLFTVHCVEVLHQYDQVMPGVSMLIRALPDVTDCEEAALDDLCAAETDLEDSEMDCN
HIPK2, sequence (Q9H2X6 whole entry, species assumed): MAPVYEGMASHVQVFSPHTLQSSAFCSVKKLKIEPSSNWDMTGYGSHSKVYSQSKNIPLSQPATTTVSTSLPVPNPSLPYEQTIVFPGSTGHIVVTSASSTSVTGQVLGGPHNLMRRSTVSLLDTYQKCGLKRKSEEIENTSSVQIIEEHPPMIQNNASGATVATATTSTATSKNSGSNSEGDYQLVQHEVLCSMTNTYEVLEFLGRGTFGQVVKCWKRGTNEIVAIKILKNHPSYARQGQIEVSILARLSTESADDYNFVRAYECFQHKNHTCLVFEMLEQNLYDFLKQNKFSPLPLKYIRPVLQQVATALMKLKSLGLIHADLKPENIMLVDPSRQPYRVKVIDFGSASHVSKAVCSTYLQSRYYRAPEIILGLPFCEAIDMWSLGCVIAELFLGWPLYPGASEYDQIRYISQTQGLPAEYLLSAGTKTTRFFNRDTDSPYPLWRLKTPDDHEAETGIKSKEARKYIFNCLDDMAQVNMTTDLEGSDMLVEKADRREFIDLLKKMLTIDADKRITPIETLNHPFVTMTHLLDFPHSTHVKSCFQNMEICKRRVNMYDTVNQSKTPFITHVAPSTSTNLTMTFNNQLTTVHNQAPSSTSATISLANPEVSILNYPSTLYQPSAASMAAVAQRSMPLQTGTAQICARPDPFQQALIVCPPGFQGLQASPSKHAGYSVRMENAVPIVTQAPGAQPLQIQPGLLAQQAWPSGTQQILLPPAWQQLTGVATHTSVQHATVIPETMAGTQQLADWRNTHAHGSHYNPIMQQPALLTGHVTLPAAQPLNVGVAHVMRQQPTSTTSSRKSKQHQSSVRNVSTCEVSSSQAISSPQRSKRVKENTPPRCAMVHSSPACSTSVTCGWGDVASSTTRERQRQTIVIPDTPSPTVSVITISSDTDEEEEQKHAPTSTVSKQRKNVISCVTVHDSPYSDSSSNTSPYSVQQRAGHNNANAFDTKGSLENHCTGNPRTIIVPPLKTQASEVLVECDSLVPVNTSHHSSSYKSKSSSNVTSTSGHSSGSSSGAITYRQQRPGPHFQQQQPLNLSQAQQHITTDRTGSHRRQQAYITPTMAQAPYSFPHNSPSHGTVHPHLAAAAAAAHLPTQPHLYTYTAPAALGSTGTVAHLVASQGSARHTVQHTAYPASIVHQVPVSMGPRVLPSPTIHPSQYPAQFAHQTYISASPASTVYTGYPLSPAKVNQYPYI

Consider `Cn1c(=O)n(-c2ccc(C(C)(C)C#N)cc2)c2c3cc(-c4cnc5ccccc5c4)ccc3ncc21` [BEZ235], for which the IC50 on ATR [1] is around 21 nM.

Consider `Cl.Cl.c1cc(OCCN2CCCCC2)cc(-c2n[nH]c3ccc(-c4ncn[nH]4)cc23)c1` [CC 401 dihydrochloride, 3-[3-[2-(1-Piperidinyl)ethoxy]phenyl]-5-(1H-1,2,4-triazol-5-yl)-1H-indazole dihydrochloride], for which the “selectivity for JNK over p38, ERK, IKK2, protein kinase C, Lck and ZAP70” value in the data set with JNK [2] was above 40 fold. Moreover, the Ki at JNK [3] was 25 to 50 nM.

As to `O=C(NC(NC(=S)Nc1ccc(F)c([N+](=O)[O-])c1)C(Cl)(Cl)Cl)C(c1ccccc1)c1ccccc1` (centres unmarked) [CGK 733], the IC50 at ATR [4] and on ATM kinase was around 200 nM in each case.

As to `Nc1n[nH]c2nnc(-c3c(-c4ccccc4)nn4ccccc34)cc12` [FR180204, 5-(2-Phenyl-pyrazolo[1,5-a]pyridin-3-yl)-1H-pyrazolo[3,4-c]pyridazin-3-ylamine], the “activity against MEK1, MKK4, IKKα, PKCα, Src, Syc and PDGFα” value in data set [5] is listed as “no activity”. The IC50 in the data set with Mv1Lu cells was 3.1 µM.

Regarding `O=c1cc(-c2cccc3c2Sc2ccccc2S3)oc(N2CCOCC2)c1` [KU-55933], the solubility result in [6] was “soluble in DMSO and ethanol”.

Consider `C[S+]([O-])c1ccc(-c2nc(-c3ccncc3)c(-c3ccc(F)cc3)[nH]2)cc1` (centres unmarked) [SB 203580 hydrochloride], for which, in [6], the solubility entry is “water-soluble”.

For `O=C1c2ccccc2-c2n[nH]c3cccc1c23` [SP600125, Anthra[1-9-cd]pyrazol-6(2H)-one], the half-maximal inhibitory concentration (IC50) with JNK1, 2 and 3 is 40 to 90 nM. Moreover, in the data set with human CD34+ HSPCs [7] (CB HSPCs, Erk (4 μM) or Jnk (2 μM) inhibitor day 1 and 2 vs DMSO, 96 h post-editing), the “GFP levels in HSPC subpopulations (GE efficiency)” value was “increase in GFP levels”. The “Percentage of more primitive edited cells” value in the data set with human CD34+ HSPCs [7] (Jnk inhibitor 2 μM day 1 and 2) is recorded as “higher percentage of more primitive edited cells”.

Consider `Nc1nnc(Sc2ncc([N+](=O)[O-])s2)s1` [SU 3327, 5-[(5-Nitro-2-thiazolyl)thio]-1,3,4thiadiazol-2-amine], for which the IC50 is 239 nM in the data set on JNK and JIP; 700 nM in the data set with JNK [3].

For the molecule `CCOc1nc(NC(=O)Cc2cc(OC)ccc2OC)cc(N)c1C#N` [TCS JNK 6o, N-(4-Amino-5-cyano-6-ethoxy-2-pyridinyl)-2,5-dimethoxybenzeneacetamide], the EC50 in the data set with c-Jun phosphorylation was 920 nM.

On to `CN(C)c1nc2c(Br)c(Br)c(Br)c(Br)c2n1CC(=O)O` [TMCB, 2-(4,5,6,7-Tetrabromo-2-(dimethylamino)-1H-benzo[d]imidazol-1-yl)acetic acid], for which the IC50 (on casein kinase 2 (CK2); in [8]) was 500 nM throughout. The Ki at casein kinase 2 (CK2) is 250 nM; on PIM1 it was 8.65 µM; on DYRK1a it was 11.9 µM; on HIPK2 it was 15.2 µM.

`CCOc1cc(N2CCC(O)CC2)ccc1Nc1ncc2c(n1)N(C)c1ccccc1C(=O)N2C` [XMD 8-92, 2-[[2-Ethoxy-4-(4-hydroxy-1-piperidinyl)phenyl]amino]-5,11-dihydro-5,11-dimethyl-6H-pyrimido[4,5-b][1,4]benzodiazepin-6-one]: the Kd at BRD4 was 190 nM.

B1: GSE56: mRNA encoding for a dominant negative p53 truncated form (GSE56), co-electroporated; SEQ ID No. 8 and 9 (nucleic acid)
sense: ATGGATGGATGGTGTCCTGGGAGAGACCGTCGGACAGAGGAAGAAAATTTCCGCAAAAAAGAAGAGCATTGCCCGGAGCTGCCCCCAGGGAGTGCAAAGAGAGCACTGCCCACCAGCACAAGCTCCTCTCCCCAGCAAAAGAAAAAACCACTCGATGGAGAATATTTCACCCTTAAGATCCGTGGGCGTGAGCGCTTCGAGATGTTCCGAGAGCTGAATGAGGCCTTGGAATTAAAGGATGCCCGTGCTGCCGAGGAGTCAGGAGACAGCAGGGCTCACTCCAGCTACCCGAAGATAGTTAGTTAG
B1: the “mRNA levels of p21, p16 and IL8 in BM-derived HSPCs” value in the data set with IL8, CXCL10, p21, p16 was “mitigated by the administration of GSE56”. Besides, the “Human CD45+ engraftment in peripheral blood vs standard protocol” value with edited human CD34+ HSPCs is given as “fourfold higher engraftment than the standard protocol”. Further, in data set [9], the “Percentage of senescent cells (p16, SA-β-Gal) in BM-derived CD34+ / HDR-edited cells of the human graft” value was “prevented the accumulation of the senescence marker SA-β-gal; also recorded: this reduction was observed also upon p53 inhibition”. For the same molecule, in the data set with human CD34+ HSPCs [10], the “Number of colonies (HSPC clonogenic potential)” value is on record as “similarly increased”. Besides, the “Percentage of HDR-edited alleles (ddPCR)” value in the data set on human CD34+ HSPCs [7] (CB HSPCs, AAVS1 editing (HS/AAV6), inhibitor at time of GE (Anakinra 50 ng/μl, SC514 25 μM, GSE56 mRNA, ATMi) vs standard protocol) is on record as “tended to increase the percentage of HDR editing”. Besides, the “Number of colonies formed by BM-derived CD34+ cells” value in data set [11] is recorded as “improvement of HSPC clonogenic potential upon p53 inhibition; also recorded: became higher upon p53 inhibition”. For the same molecule, the “Relative expression of inflammatory cytokine genes (IL1A, IL8, IL6, CCL2)” value in the data set on IL1A, IL8, IL6, CCL2 was “downregulation of the cytokines”.
